Measured values from patent US20080009418A1, “Selective Inhibitors” (Alchemia LTD., priority 2004, published 2008).

Legend:
Settings in all cases: compound at 10 μM
[1] = molecular target: T1, Human melanocortin (MC5) (Homo sapiens, UniProt P33032); test: Radioligand binding, human melanocortin MC5 membranes, FlashPlate, [125I]-NDP-αMSH
T1 construct: purchased Perkin Elmer Biosignal
Experimental: (§1) Cloned receptor membrane preparations from Perkin Elmer Biosignal™ were used in radioligand binding assays.
(§2) A1 Human δ-opioid (DOP), A2 Human κ-Opioid (KOP), A3 Human Melanocortin (MC3), A4 Human Melanocortin (MC4), A5 Human melanocortin (MC5), A6 Human melanin-concentrating hormone (MCH1), A7 Human μ-opioid (MOP), A8 Human neurokinin (NK1), A9 Human neuropeptide Y (NPY-Y1), A10 Human opioid (ORL1) A11 Mouse urotensin (mUR2)
(§3) Screening experiments were performed in either a 50 μl filtration or 25 μl FlashPlate assay format using the following protocol:
(§4) 19.5 μl buffer, 0.5 μl of compound diluted in DMSO, 5 μl of radioligand diluted in binding buffer.
(§5) The day prior to performing the experiment 50 μl DMSO was added to each well of the compound plates to yield compounds at a final concentration of 10 mM. Daughter plates were then created by diluting the compounds further in DMSO to a concentration of 0.5 mM. The mother plates were frozen immediately.
(§6) Immobilize membranes into FlashPlate microplates using PerkinElmer BioSignal's proprietary coating procedure. Dilute radioligand to 5× the final concentration in binding buffer. Add 19.5 μl buffer to each well of the FlashPlate. Add 0.5 μl of DMSO (total value, 5 wells), reference ligand (non-specific value, 3 wells) or compound to the corresponding wells in the FlashPlate microplate. Initiate the reaction by adding 5 μl of radioligand to each well. Apply TopSeal-A onto FlashPlate microplates. Incubate at room temperature for 1 hour in the dark. Count for 30 seconds per well on TopCount Microplate Scintillation and Luminescence Counter (PerkinElmer) using a count delay of 60 seconds.
(§7) Percentage inhibition was calculated using the following formula: [formula]

[2] = molecular target: T2, Human Melanocortin (MC3) (Homo sapiens, UniProt P41968); test: Radioligand binding, human melanocortin MC3 membranes, FlashPlate, [125I]-NDP-αMSH
T2 construct: purchased Perkin Elmer Biosignal
Experimental: as §1, §2, §3, §4, §5, §6, §7

[3] = molecular target: T3, Human neurokinin (NK1) (Homo sapiens, UniProt P25103); test: Radioligand binding, human neurokinin NK1 membranes, filtration, [125I]-Substance P
T3 construct: purchased Perkin Elmer Biosignal
Experimental: as §1, §2, §3
(§8) 44 μl membranes diluted in buffer, 1 μl of compound diluted in DMSO, 5 μl of radioligand diluted in binding buffer.
as §5
(§9) Thaw membranes on ice then dilute membranes in binding buffer at a concentration of 1 Unit per well. Dilute radio-ligand to 10 times the final concentration in binding buffer. Add 44 μl of diluted membranes to each well of the deep-well plate. Add 1 μl of DMSO (total value, 5 wells), reference ligand (non-specific value, 3 wells) or compound to the corresponding wells in the deep-well plate. Initiate the reaction by adding 5 μl of radioligand to each well and vortex gently. Incubate at room temperature for 1 hour. During incubation, pre-incubate the Multiscreen Harvest plates in 0.3% PEI. Filter over pre-soaked Multiscreen Harvest plates using a Tomtec Harvester. Wash 9 times with 500 μl of cold 50 mM Tris-HCl pH 7.4 at 4° C. and air-dry for 30 minutes at room temperature under a fume hood. Apply a bottom seal to the Multiscreen Harvest plates. Add 25 μl of MicroScint-0 to each well. Apply TopSeal-A to the plate. Count for 30 seconds per well on TopCount Microplate Scintillation and Luminescence Counter (PerkinElmer) using a count delay of 60 seconds.
as §7

[4] = molecular target: T4, Human Melanocortin (MC4) (Homo sapiens, UniProt P32245); test: Radioligand binding, human melanocortin MC4 membranes, FlashPlate, [125I]-NDP-αMSH
T4 construct: purchased Perkin Elmer Biosignal
Experimental: as §1, §2, §3, §4, §5, §6, §7

[5] = molecular target: T5, Human κ-Opioid (KOP) (Homo sapiens, UniProt P41145); test: Radioligand binding, human κ-opioid (KOP) membranes, filtration, [3H]-Diprenorphine
T5 construct: purchased Perkin Elmer Biosignal
Experimental: as §1, §2, §3, §8, §5, §9, §7

[6] = molecular target: T6, Mouse urotensin (mUR2) (Mus musculus, UniProt Q8VIH9); test: Radioligand binding, mouse urotensin mUR2 membranes, FlashPlate, [125I]-Urotensin II
T6 construct: purchased Perkin Elmer Biosignal
T6 sequence (Q8VIH9 1-385): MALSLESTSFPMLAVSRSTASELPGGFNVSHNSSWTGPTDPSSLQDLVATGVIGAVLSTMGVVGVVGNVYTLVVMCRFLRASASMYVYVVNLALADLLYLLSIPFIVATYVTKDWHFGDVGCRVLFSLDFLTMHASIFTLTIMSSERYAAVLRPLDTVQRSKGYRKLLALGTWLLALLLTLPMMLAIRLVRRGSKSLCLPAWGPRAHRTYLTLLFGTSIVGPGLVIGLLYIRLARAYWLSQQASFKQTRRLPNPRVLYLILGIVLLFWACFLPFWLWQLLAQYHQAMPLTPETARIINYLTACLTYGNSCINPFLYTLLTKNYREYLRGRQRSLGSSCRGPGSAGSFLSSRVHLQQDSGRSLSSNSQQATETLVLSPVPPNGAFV
Experimental: as §1, §2, §3, §4, §5, §6, §7

[7] = molecular target: T7, Human μ-opioid (MOP) (Homo sapiens, UniProt P35372); test: Radioligand binding, human μ-opioid (MOP) membranes, FlashPlate, [3H]-Naloxone
T7 construct: purchased Perkin Elmer Biosignal
Experimental: as §1, §2, §3, §4, §5, §6, §7

[8] = molecular target: T8, Human δ-opioid (DOP) (Homo sapiens, UniProt P41143); test: Radioligand binding, human δ-opioid (DOP) membranes, FlashPlate, [3H]-Bremazocine
T8 construct: purchased Perkin Elmer Biosignal
Experimental: as §1, §2, §3, §4, §5, §6, §7

[9] = molecular target: T9, Human melanin-concentrating hormone (MCH1) (Homo sapiens, UniProt Q99705); test: Radioligand binding, human melanin-concentrating hormone MCH1 membranes, FlashPlate, [125I]-S36057
T9 construct: purchased Perkin Elmer Biosignal
Experimental: as §1, §2, §3, §4, §5, §6, §7

[10] = molecular target: T10, Human neuropeptide Y (NPY-Y1) (Homo sapiens, UniProt P25929); test: Radioligand binding, human neuropeptide Y NPY-Y1 membranes, FlashPlate, [125I]-PYY
T10 construct: purchased Perkin Elmer Biosignal
T10 sequence (P25929 1-384): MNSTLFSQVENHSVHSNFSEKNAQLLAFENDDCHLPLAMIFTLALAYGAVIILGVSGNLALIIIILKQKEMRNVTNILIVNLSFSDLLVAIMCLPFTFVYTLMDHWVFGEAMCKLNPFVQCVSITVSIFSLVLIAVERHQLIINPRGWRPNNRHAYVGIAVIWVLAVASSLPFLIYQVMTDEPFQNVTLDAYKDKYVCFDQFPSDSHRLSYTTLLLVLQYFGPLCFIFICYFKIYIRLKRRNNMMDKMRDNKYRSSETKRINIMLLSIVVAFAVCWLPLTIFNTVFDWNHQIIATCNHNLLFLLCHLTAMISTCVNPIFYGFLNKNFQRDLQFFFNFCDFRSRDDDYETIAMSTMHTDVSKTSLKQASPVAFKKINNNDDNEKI
Experimental: as §1, §2, §3, §4, §5, §6, §7

[11] = molecular target: T11, Human opioid (ORL1) (Homo sapiens, UniProt P41146); test: Radioligand binding, human opioid ORL1 membranes, FlashPlate, [125I]-Nociceptin
T11 construct: purchased Perkin Elmer Biosignal
Experimental: as §1, §2, §3, §4, §5, §6, §7

T8 sequence (P41143 whole entry): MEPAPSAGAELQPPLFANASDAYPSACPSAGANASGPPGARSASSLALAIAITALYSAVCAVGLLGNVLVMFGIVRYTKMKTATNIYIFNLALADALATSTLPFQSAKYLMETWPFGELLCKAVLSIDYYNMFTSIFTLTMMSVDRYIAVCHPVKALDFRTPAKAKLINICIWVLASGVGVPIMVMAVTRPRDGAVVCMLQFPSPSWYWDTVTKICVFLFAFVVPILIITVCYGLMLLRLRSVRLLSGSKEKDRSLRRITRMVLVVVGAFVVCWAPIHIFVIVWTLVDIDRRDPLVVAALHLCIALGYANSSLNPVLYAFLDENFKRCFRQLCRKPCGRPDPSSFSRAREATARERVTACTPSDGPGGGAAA
T2 sequence (P41968 whole entry): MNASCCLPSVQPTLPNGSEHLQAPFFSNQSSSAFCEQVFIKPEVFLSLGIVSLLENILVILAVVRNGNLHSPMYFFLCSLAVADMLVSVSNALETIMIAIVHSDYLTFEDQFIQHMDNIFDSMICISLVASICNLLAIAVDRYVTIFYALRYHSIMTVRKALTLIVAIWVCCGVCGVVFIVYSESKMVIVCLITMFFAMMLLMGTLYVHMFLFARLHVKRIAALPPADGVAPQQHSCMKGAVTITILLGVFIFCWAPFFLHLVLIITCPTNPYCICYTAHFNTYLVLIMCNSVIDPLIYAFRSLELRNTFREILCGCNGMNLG
T1 sequence (P33032 whole entry): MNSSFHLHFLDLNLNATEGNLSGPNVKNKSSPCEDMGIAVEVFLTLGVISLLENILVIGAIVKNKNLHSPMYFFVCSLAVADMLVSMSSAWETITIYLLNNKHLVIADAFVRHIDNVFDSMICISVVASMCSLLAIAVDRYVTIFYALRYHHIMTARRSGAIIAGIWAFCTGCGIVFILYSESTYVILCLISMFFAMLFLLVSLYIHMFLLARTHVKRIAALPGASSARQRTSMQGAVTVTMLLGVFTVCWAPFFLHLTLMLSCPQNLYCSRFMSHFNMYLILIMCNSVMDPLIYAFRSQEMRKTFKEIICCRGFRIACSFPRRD
T4 sequence (P32245 whole entry): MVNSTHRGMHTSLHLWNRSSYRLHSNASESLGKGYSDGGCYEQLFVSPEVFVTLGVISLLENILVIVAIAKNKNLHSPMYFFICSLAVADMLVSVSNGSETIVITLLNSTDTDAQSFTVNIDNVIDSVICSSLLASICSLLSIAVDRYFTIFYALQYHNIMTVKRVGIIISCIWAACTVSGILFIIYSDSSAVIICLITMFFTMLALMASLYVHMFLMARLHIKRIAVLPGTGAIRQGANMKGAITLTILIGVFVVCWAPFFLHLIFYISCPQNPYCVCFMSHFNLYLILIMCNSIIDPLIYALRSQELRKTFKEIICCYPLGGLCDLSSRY
T3 sequence (P25103 whole entry): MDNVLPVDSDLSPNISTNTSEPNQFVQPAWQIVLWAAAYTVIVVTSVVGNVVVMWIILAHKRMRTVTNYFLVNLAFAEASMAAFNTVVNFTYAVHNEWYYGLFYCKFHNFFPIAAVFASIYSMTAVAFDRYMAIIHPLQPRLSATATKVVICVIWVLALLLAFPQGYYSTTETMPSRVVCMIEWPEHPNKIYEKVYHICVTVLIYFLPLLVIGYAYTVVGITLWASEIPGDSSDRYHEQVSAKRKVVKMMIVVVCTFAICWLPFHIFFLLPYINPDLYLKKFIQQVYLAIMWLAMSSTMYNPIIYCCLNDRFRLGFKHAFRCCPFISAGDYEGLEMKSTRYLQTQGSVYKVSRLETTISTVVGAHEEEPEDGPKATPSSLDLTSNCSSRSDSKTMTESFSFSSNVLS
T9 sequence (Q99705 whole entry): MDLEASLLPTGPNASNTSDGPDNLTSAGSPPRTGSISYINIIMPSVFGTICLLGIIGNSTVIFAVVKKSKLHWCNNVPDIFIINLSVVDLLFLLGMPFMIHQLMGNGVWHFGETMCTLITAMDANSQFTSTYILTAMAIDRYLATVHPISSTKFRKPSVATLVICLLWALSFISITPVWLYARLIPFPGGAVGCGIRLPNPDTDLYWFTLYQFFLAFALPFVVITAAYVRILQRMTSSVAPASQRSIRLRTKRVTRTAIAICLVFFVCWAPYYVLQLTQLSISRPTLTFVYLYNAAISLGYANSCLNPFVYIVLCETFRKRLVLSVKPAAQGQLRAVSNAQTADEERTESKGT
T7 sequence (P35372 whole entry): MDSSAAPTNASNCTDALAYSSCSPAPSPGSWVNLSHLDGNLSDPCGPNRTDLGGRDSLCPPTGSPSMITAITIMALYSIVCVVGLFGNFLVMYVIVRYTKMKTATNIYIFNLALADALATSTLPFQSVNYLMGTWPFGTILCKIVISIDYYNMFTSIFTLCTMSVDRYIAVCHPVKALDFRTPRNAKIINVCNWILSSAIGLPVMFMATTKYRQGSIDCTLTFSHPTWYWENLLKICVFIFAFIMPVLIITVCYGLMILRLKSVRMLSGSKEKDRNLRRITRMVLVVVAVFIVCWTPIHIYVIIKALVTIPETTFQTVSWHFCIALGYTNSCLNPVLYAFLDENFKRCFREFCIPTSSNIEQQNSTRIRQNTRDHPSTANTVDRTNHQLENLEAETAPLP
T11 sequence (P41146 whole entry): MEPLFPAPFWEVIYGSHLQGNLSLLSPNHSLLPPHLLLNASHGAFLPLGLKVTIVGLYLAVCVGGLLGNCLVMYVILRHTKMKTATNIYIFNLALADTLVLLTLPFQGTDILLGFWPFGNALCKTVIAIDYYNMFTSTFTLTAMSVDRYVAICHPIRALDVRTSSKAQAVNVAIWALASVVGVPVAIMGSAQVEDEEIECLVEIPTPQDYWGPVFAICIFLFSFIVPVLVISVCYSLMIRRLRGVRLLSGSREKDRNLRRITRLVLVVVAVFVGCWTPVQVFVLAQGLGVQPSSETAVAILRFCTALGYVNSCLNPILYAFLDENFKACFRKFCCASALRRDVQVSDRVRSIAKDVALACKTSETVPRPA
T5 sequence (P41145 whole entry): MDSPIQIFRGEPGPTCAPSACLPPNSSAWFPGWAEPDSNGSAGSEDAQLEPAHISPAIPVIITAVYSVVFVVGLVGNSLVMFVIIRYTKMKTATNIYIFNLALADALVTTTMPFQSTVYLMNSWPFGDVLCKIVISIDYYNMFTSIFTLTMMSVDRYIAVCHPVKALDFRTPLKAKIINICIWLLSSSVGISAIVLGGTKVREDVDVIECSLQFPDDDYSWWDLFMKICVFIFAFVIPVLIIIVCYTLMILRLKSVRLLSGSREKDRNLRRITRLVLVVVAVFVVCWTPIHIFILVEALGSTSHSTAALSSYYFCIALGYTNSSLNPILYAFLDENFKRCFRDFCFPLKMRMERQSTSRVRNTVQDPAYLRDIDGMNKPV

## Cc1ccc(CO[C@H]2[C@H](O)[C@@H](CO)OC(NC(=O)CCN)[C@@H]2NC(=O)c2ccccc2)cc1 (some centres unmarked) [compound 357]
[1]; [125I]-NDP-αMSH
  A5: inhibition of radioligand binding, human melanocortin (MC5): − (“−” indicates less than 50% inhibition at 10 μM)
[2]; [125I]-NDP-αMSH
  A3: inhibition of radioligand binding, human melanocortin (MC3): − (“−” indicates less than 50% inhibition at 10 μM)
[3]; [125I]-Substance P
  A8: inhibition of radioligand binding, human neurokinin (NK1): − (“−” indicates less than 50% inhibition at 10 μM)
[4]; [125I]-NDP-αMSH
  A4: inhibition of radioligand binding, human melanocortin (MC4): − (“−” indicates less than 50% inhibition at 10 μM)
[5]; [3H]-Diprenorphine
  A2: inhibition of radioligand binding, human κ-opioid (KOP): − (“−” indicates less than 50% inhibition at 10 μM)
[6]; [125I]-Urotensin II
  A11: inhibition of radioligand binding, mouse urotensin (mUR2): − (“−” indicates less than 50% inhibition at 10 μM)
[7]; [3H]-Naloxone
  A7: inhibition of radioligand binding, human μ-opioid (MOP): − (“−” indicates less than 50% inhibition at 10 μM)
[8]; [3H]-Bremazocine
  A1: inhibition of radioligand binding, human δ-opioid (DOP): − (“−” indicates less than 50% inhibition at 10 μM)
[9]; [125I]-S36057
  A6: inhibition of radioligand binding, human melanin-concentrating hormone (MCH1): + (“+” indicates greater than 50% inhibition at 10 μM)
[10]; [125I]-PYY
  A9: inhibition of radioligand binding, human neuropeptide Y (NPY-Y1): − (“−” indicates less than 50% inhibition at 10 μM)
[11]; [125I]-Nociceptin
  A10: inhibition of radioligand binding, human opioid (ORL1): − (“−” indicates less than 50% inhibition at 10 μM)

## N=C(N)NCC(=O)NC1C(OCc2ccc(-c3ccccc3)cc2)OC(COCc2ccc(Cl)cc2)C(O)C1OCc1ccc(-c2ccccc2)cc1 (centres unmarked) [compound 407]
[1]; [125I]-NDP-αMSH, human MC5 membranes
  A5: inhibition of radioligand binding: + (“+” indicates greater than 50% inhibition at 10 μM)
[2]; [125I]-NDP-αMSH, human MC3 membranes
  A3: inhibition of radioligand binding: + (“+” indicates greater than 50% inhibition at 10 μM)
[3]; [125I]-Substance P, human NK1 membranes
  A8: inhibition of radioligand binding: + (“+” indicates greater than 50% inhibition at 10 μM)
[4]; [125I]-NDP-αMSH, human MC4 membranes
  A4: inhibition of radioligand binding: + (“+” indicates greater than 50% inhibition at 10 μM)
[5]; [3H]-Diprenorphine, human KOP membranes
  A2: inhibition of radioligand binding: − (“−” indicates less than 50% inhibition at 10 μM)
[6]; [125I]-Urotensin II, mouse mUR2 membranes
  A11: inhibition of radioligand binding: − (“−” indicates less than 50% inhibition at 10 μM)
[7]; [3H]-Naloxone, human MOP membranes
  A7: inhibition of radioligand binding: − (“−” indicates less than 50% inhibition at 10 μM)
[8]; [3H]-Bremazocine, human DOP membranes
  A1: inhibition of radioligand binding: − (“−” indicates less than 50% inhibition at 10 μM)
[9]; [125I]-S36057, human MCH1 membranes
  A6: inhibition of radioligand binding: + (“+” indicates greater than 50% inhibition at 10 μM)
[10]; [125I]-PYY, human NPY-Y1 membranes
  A9: inhibition of radioligand binding: − (“−” indicates less than 50% inhibition at 10 μM)
[11]; [125I]-Nociceptin, human ORL1 membranes
  A10: inhibition of radioligand binding: + (“+” indicates greater than 50% inhibition at 10 μM)

## COC[C@H]1OC(OCc2ccc3ccccc3c2)[C@H](NC(=O)CCNC(=N)N)[C@@H](OCc2ccc(-c3ccccc3)cc2)[C@@H]1O (some centres unmarked) [compound 16]
[1]; human melanocortin MC5 membranes
  A5 radioligand binding inhibition: + (“+” indicates greater than 50% inhibition at 10 μM)
[2]; human melanocortin MC3 membranes
  A3 radioligand binding inhibition: + (“+” indicates greater than 50% inhibition at 10 μM)
[3]; human neurokinin NK1 membranes
  A8 radioligand binding inhibition: + (“+” indicates greater than 50% inhibition at 10 μM)
[4]; human melanocortin MC4 membranes
  A4 radioligand binding inhibition: + (“+” indicates greater than 50% inhibition at 10 μM)
[5]; human κ-opioid (KOP) membranes
  A2 radioligand binding inhibition: + (“+” indicates greater than 50% inhibition at 10 μM)
[6]; mouse urotensin mUR2 membranes
  A11 radioligand binding inhibition: − (“−” indicates less than 50% inhibition at 10 μM)
[7]; human μ-opioid (MOP) membranes
  A7 radioligand binding inhibition: + (“+” indicates greater than 50% inhibition at 10 μM)
[8]; human δ-opioid (DOP) membranes
  A1 radioligand binding inhibition: + (“+” indicates greater than 50% inhibition at 10 μM)
[9]; human MCH1 membranes
  A6 radioligand binding inhibition: + (“+” indicates greater than 50% inhibition at 10 μM)
[10]; human NPY-Y1 membranes
  A9 radioligand binding inhibition: − (“−” indicates less than 50% inhibition at 10 μM)
[11]; human ORL1 membranes
  A10 radioligand binding inhibition: − (“−” indicates less than 50% inhibition at 10 μM)

## CSC1OC(COCc2ccccc2)C(O)C(OCc2ccc(Cl)cc2)C1NC(=O)CNC(=N)N (centres unmarked) [compound 265]
[1]; [125I]-NDP-αMSH, FlashPlate
  A5: inhibition of radioligand binding: − (“−” indicates less than 50% inhibition at 10 μM)
[2]; [125I]-NDP-αMSH, FlashPlate
  A3: inhibition of radioligand binding: − (“−” indicates less than 50% inhibition at 10 μM)
[3]; [125I]-Substance P, filtration
  A8: inhibition of radioligand binding: + (“+” indicates greater than 50% inhibition at 10 μM)
[4]; [125I]-NDP-αMSH, FlashPlate
  A4: inhibition of radioligand binding: + (“+” indicates greater than 50% inhibition at 10 μM)
[5]; [3H]-Diprenorphine, filtration
  A2: inhibition of radioligand binding: − (“−” indicates less than 50% inhibition at 10 μM)
[6]; [125I]-Urotensin II, FlashPlate
  A11: inhibition of radioligand binding: − (“−” indicates less than 50% inhibition at 10 μM)
[7]; [3H]-Naloxone, FlashPlate
  A7: inhibition of radioligand binding: − (“−” indicates less than 50% inhibition at 10 μM)
[8]; [3H]-Bremazocine, FlashPlate
  A1: inhibition of radioligand binding: − (“−” indicates less than 50% inhibition at 10 μM)
[9]; [125I]-S36057, FlashPlate
  A6: inhibition of radioligand binding: − (“−” indicates less than 50% inhibition at 10 μM)
[10]; [125I]-PYY, FlashPlate
  A9: inhibition of radioligand binding: − (“−” indicates less than 50% inhibition at 10 μM)
[11]; [125I]-Nociceptin, FlashPlate
  A10: inhibition of radioligand binding: − (“−” indicates less than 50% inhibition at 10 μM)
